Laboratory results from paper PMC11395333, “The Bifunctional Dimer Caffeine-Indan Attenuates α-Synuclein Misfolding, Neurodegeneration and Behavioral Deficits after Chronic Stimulation of Adenosine A1 Receptors” (International Journal of Molecular Sciences, 2024).

Experiments:
male Sprague-Dawley rats = assay: Forced swim test after 7-day chronic i.p. CPA injection; assay type: in vivo, rat
From the text: All animals were housed and treated humanely following the guidelines from the following governing bodies: National Research Council (US) Committee for the Update of the Guide for the Care and Use of Laboratory Animals (Washington DC, USA, 2011); Canadian Council on Animal Care (CCAC); and the University of Saskatchewan Animal Research Ethics Board (AREB), which approved our Animal Use Protocol (#20070090 and #20170079). The animals were housed in cages of two, with access to food pellets and water ad libitum. The four treatments of the Sprague-Dawley rats consisted of the following: 1. Control (0.1% DMSO in 0.9% saline); 2. CPA; 3. […] Drugs were dissolved at 3 mg/mL in DMSO, and each drug was administered to the animals by daily i.p. injections (3 mg/kg or 5 mg/kg body weight) for 7 consecutive days. […] Then, on days 8 and 9 following the final injections, the animals were subjected to several behavioral tests. The forced swim test is used to assess depressive behavior such as despair and learned helplessness. The test is also used to assess the vigor and the ability of the animal to keep its head above the water in which the animals swim. In addition, the first and last three minutes of the test were manually scored for the ability of the rat to swim with all its four limbs. […] In addition, the ability of the animal to keep its head above water was scored. […] The forced swim test apparatus was a plexiglass cuboid measuring 30 cm in length, 30 cm in width and 60 cm in depth. The tank was then filled two-thirds with lukewarm water not exceeding 25 °C. Afterwards, the animal was left in the cylinder for 10 min during which its time spent immobile as well as its ability to swim and keep its head above water was analyzed. This trial was then used to calculate the percentage of time the animals spent immobile, as well as the vigor and success with which the animal swam. A video camera was used to record the animal movement in this test. The forced swim test was conducted the following day (day nine), giving the animals a sufficient resting period from the Y-maze and open field tests. Each experiment was repeated at least fifteen times per treatment, and the average of each treatment is presented in the bar graphs as average means ± SEM.

α-Syn [1] = assay: Immunohistochemistry and Thioflavin-S staining of brain slices (α-Syn expression and aggregation); assay type: in vivo, rat
From the text: All animals were housed and treated humanely following the guidelines from the following governing bodies: National Research Council (US) Committee for the Update of the Guide for the Care and Use of Laboratory Animals (Washington DC, USA, 2011); Canadian Council on Animal Care (CCAC); and the University of Saskatchewan Animal Research Ethics Board (AREB), which approved our Animal Use Protocol (#20070090 and #20170079). The animals were housed in cages of two, with access to food pellets and water ad libitum. The four treatments of the Sprague-Dawley rats consisted of the following: 1. Control (0.1% DMSO in 0.9% saline); 2. CPA; 3. […] Drugs were dissolved at 3 mg/mL in DMSO, and each drug was administered to the animals by daily i.p. injections (3 mg/kg or 5 mg/kg body weight) for 7 consecutive days. […] Then, on days 8 and 9 following the final injections, the animals were subjected to several behavioral tests.
Anesthetized rats were transcardially perfused with 0.9% saline, and then fixed with 4% paraformaldehyde. The extracted brains were put in 30% cryoprotected sucrose solution for 48 h prior to slicing. The brains were initially frozen at −40 °C (BFS-30 mp controllers) and sliced with the help of a microtome (Leica SM2010 R Sliding controller). Coronal slices of 40 μm were then washed three times in 0.1 M phosphate-buffered saline followed by 1 h blocking at room temperature with blocking buffer. The buffer solution components have been previously described. The slices were then incubated overnight at 4 °C with the following primary antibodies: 1:200 mouse monoclonal to α-synuclein (Abcam Inc, Toronto, ON, Canada; Cat# ab280377) and 1:200 rabbit polyclonal to tyrosine hydroxylase (TH) (Millipore-Sigma, Oakville, ON, Canada; Cat# AB152). Subsequently, slices were then incubated for 1 h in the dark at room temperature with the following secondary antibodies (1:1000): AlexaFluor-555-conjugated anti-mouse (Cat# A-21127) and AlexaFluor-647-conjugated anti-rabbit (Cat# A-21244) purchased from Invitrogen (Thermo Fisher Scientific, Waltham, MA, USA). Slices were then treated with Thioflavin-S (see further details below). Lastly, the slices were incubated for 5 min at room temperature with DAPI (2 mg/mL) from Invitrogen (Thermo Fisher Scientific; Cat# R37606) and images were taken using a Zeiss LSM700 confocal microscope (Carl Zeiss Group, Toronto, ON, Canada) and analyzed with ImageJ (Open-Source Public Domain software, United States National Institute of Health (US NIH), Bethesda, MD, USA). Images of the hippocampal CA1 pyramidal layer and the SN pars compacta were obtained using the Zeiss Plan-Apochromat 63X/1.4 oil objective lens (Carl Zeiss Group, Toronto, ON, Canada). Images were acquired as Z-stack images of hippocampal or SN regions with 12–13 Z-stack images taken at 1 µm intervals near the middles of brain slices. Two Z-stack images were taken along the hippocampal CA1 or SN pars compacta region for each slice, and immunofluorescence signals were averaged using densitometry analysis.
Thioflavin-S (Thio-S) is a fluorescent marker (Sigma-Aldrich, Oakville, ON, Canada; Cat# T1892-25G) that detects α-Syn aggregates and amyloid plaques. Coronal slices of 40 μm were firstly treated with 0.3% KMnO4 for 4 min, followed by a 30 min incubation with 1 M phosphate buffered saline at 4 °C. These slices were then stained with 0.05% Thioflavin-S in 50% ethanol in the dark for 8 min, rinsed with 80% ethanol twice, followed by three rinses with ultra-pure water for 30 s. Finally, the slices were incubated again with 1 M phosphate buffered saline for 30 min at 4 °C before starting the DAPI stain. The FITC filter (488 nm laser line) was used to image Thioflavin-S using a Zeiss LSM700 confocal microscope (Carl Zeiss Group, Canada) and images were analyzed with ImageJ (Public Domain).

α-Syn [2] = test system: α-Syn; parameters: method as in PMID 27673434; details: isothermal titration calorimetry; cited from earlier work
[3] = test system: one- and two-copied α-Syn-Green Fluorescent Protein (GFP) yeast strain; parameters: method as in PMID 27673434; details: cited from earlier work
[4] = 3 or 5 mg/kg i.p. with 3 mg/kg CPA, 7 days
[5] = CPA 3 mg/kg i.p. daily for 7 days, alone

Cn1c(=O)c2c(nc(CCCCCCNC3CCc4ccccc43)n2C)n(C)c1=O (stereo not drawn) [C8–6–I]
Forced swim test, vigor and success scores (male Sprague-Dawley rats; 5 mg/kg i.p. with 3 mg/kg CPA, 7 days): significantly improved the ability to purposely swim and use all limbs, as well as the ability to keep their head above water
Forced swim test, immobility time (male Sprague-Dawley rats; [4]): spent significantly less time being immobile compared to the CPA-treated rats
Forced swim test, motor deficits (male Sprague-Dawley rats; [4]): produced no significant motor deficits
Thio-S levels in CA1 hippocampus (α-Syn [1]; 3 mg/kg + CPA): abolished the CPA-induced Thio-S levels
Thio-S levels in SNc (α-Syn [1]; 3 mg/kg + CPA, compared to control): significant increase in Thio-S levels
Thio-S levels in SNc (α-Syn [1]; 5 mg/kg + CPA): reached control levels
Thio-S levels in hippocampus (α-Syn [1]; 5 mg/kg + CPA): moderate but significant Thio-S level increase
α-Syn levels in SNc and CA1 hippocampal region (α-Syn [1]; co-treatment with 3 mg/kg CPA, 7 days): prevented this α-Syn upregulation
Binding constant with α-Syn (α-Syn [2]): 53000 M⁻¹
Number of binding sites with α-Syn (α-Syn [2]): one binding site
Rescue from α-Syn-induced cell death ([3]; galactose promoter): successful in rescuing the one- and two-copied α-Syn-Green Fluorescent Protein (GFP) yeast strain from α-Syn-induced cell death
Prevention of large α-Syn foci ([3]; one- and two-copied α-Syn-GFP yeast): effective in preventing large α-Syn foci

OC[C@H]1O[C@@H](n2cnc3c(NC4CCCC4)ncnc32)[C@H](O)[C@@H]1O [CPA, N^6-Cyclopentyladenosine, reference compound]
Forced swim test, motor deficits (male Sprague-Dawley rats; [5]): induced an increase in motor deficits
α-Syn levels in SNc and CA1 hippocampal region (α-Syn [1]; [5]): markedly increased
Thio-S levels in SNc (α-Syn [1]; CPA 3 mg/kg i.p. daily for 7 days, alone, compared to control): significant increase in Thio-S levels
